Assay results taken from US20100249175A1, “Dicationic compounds which selectively recognize G-quadruplex DNA” (priority 2005, published 2010).
Counter-ions that a name gives are not always drawn. Like-named read-outs stand apart in the source and are kept apart here.

How the values were obtained:
[1] = tested on: STIB 900 strain of Trypanosoma brucei rhodesiense (T. b. r.); assay: In vivo T. b. r. STIB 900 mouse model; conditions: for In Vivo T.b.r. cures: mice cured / mice infected, days 3-6 post-infection; for In Vivo T.b.r. survival time: observation up to day 60
Method: Groups of four mice were infected intraperitoneally with 2×10^5 bloodstream forms of T. b. r. STIB 900 which originates from a patient in Tanzania. On days 3, 4, 5, and 6 post-infection the experimental groups were treated with the drugs either by the intraperitoneal or for prodrugs by the oral route. Usually the highest tolerated dose was used which was determined in a pretoxicological experiment. Parasitemia of the mice was checked daily up to day 14 post-infection and thereafter 2 times per week up to day 60. One group of mice was not treated and acted as control. For relapsing mice, the day of death was recorded and the survival time determined.

[2] = tested on: telomeric G-quadruplex DNA sequence d[AG3(T2AG3)3] (SEQ ID NO: 1); assay: CD titration of compounds into human telomeric G-quadruplex DNA (induced CD); assay type: binding; design: key to Induced CD (no exciton): ++: Relative strength of the induced CD is indicated by the number of (+) marks; +++: Relative strength of the induced CD is indicated by the number of (+) marks; ++++: Relative strength of the induced CD is indicated by the number of (+) marks; conditions: for Induced CD (exciton) / Induced CD (no exciton): G-Quadruplex Affinity
From the text: The oligonucleotides d[AG3(T2AG3)3] (SEQ ID NO: 1), d[AG3TG4AG3TG4A] (SEQ ID NO: 2), d[G4(T4G4)3] (SEQ ID NO: 3), d[(T2G4)4] (SEQ ID NO: 4), d[(GC)7] (SEQ ID NO: 5), d[[…]] (SEQ ID NO: 6), d[G2T2G2TGTG2T2G2] (SEQ ID NO: 7), d[[…]] (SEQ ID NO: 8), d[[…]] (SEQ ID NO: 9), d[[…]] (SEQ ID NO: 10), d[[…]] (SEQ ID NO: 11), d[TTAGGGT] (SEQ ID NO: 12), and d[TGGGGT] (SEQ ID NO: 13) were purchased with HPLC purification from Midland Certified Reagent Company (The Midland Certified Reagent Company, Inc., Midland, Tex., USA). The concentration of each DNA sample was determined spectrophotometrically at 260 nm using the nearest neighbor extinction coefficient.
Stock solutions of individual dicationic polyaryl compounds were prepared in double distilled water and diluted to working concentrations immediately before use with buffer. All measurements were performed at 20° C. in a 10 mM HEPES buffer (pH 7.4) containing 3 mM EDTA and 50 mM KCl, NaCl, or LiCl. Absorbance spectra were obtained on a Varian Cary 300 BIO UV-visible spectrophotometer (Varian, Inc., Palo Alto, Calif., United States of America) in a quartz cell with a 1 cm pathlength. CD spectra were recorded using a Jasco J-810 spectrapolarimeter (Jasco, Inc., Easton, Md., United States of America) in a 1-cm cell using an instrument scanning speed of 50 nm/min with a response time of 1 s. The spectra were averaged over four scans. A buffer baseline scan was collected in the same cuvette and subtracted from the average scan for each sample. Appropriate amounts of dicationic compound stock solution or DNA were added sequentially to increase the molar ratio.
When an achiral ligand binds tightly to a chiral host, such as DNA, a CD signal is induced in the wavelength region corresponding to the absorbance of the ligand. […] An additional negative band centered at 395 nm overlaps with the higher energy exciton band. […] Restriction of the rotational and translational freedom of the two molecules of the dimer relative to each other will cause an increase in the rotational strength of the induced CD band, resulting in a large ellipticity. See Allenmark, S., Chirality, 15, 409-422 (2003).
Some compounds appeared to bind to the telomeric G-quadruplex DNA sequence d[AG3(T2AG3)3] […] Relative strength of the induced CD is indicated by the number of (+) marks.

[3] = tested on: Plasmodium falciparum (P. f.); assay: In vitro antiprotozoal activity against P. f.; assay type: cell-based; conditions: read-out: P.f. (IC50)
Method: (§1) In vitro antiprotozoal activities were measured following established protocols. […] E., et al., Bioorg.

[4] = tested on: Trypanosoma brucei rhodesiense (T. b. r.); assay: In vitro antiprotozoal activity against T. b. r.; assay type: cell-based
Method: as §1

Row | melting point [°C] | Compound | Induced CD (no exciton) [2] | IC50 [4] [nM] | IC50 ([3]; in vitro) [nM] | other results
1 | > 300 | N=C(N)c1ccc(-c2ccc(-c3ccc(-c4ccc(C(=N)N)cc4)[se]3)[se]2)cc1 | – | – | – | –
2 | > 300 | N=C(N)c1ccnc(-c2ccc(-c3ccc(-c4cc(C(=N)N)ccn4)[se]3)[se]2)c1 | – | – | – | –
3 | – | N=C(N)c1ccc(-c2ccc(-c3ccc(-c4ccc(C(=N)N)cc4)o3)o2)cc1 [Compound 17, 5,5′-bis-(4-Amidinophenyl)-2,2′-bifuran hydrochloride salt] | – | – | – | In Vivo T.b.r. cures ([1]; 10 mg/kg ip): 0/4; In Vivo T.b.r. survival time ([1]; 10 mg/kg ip): 22 days; exciton splitting in CD spectra (in words) [2]: induced exciton splitting; Induced CD (exciton) [2]: ++++; IC50 [3]: 20 nM
4 | > 300 | N=C(N)c1ccc(-c2ccc(-c3ccc(-c4ccc(C(=N)N)cn4)o3)o2)nc1 [Compound 22, 5,5′-Bis-(5-amidino-2-pyridyl)-2,2′-bifuran] | – | – | – | –
5 | > 300 | N=C(N)c1ccc(-c2ccc(-c3ccc(-c4ccc(C(=N)N)cc4)s3)s2)cc1 [Compound 26a, 5,5′-Bis-(4-amidinophenyl)-2,2′-bithiophene] | – | – | – | –
6 | > 300 | N=C(N)c1ccnc(-c2ccc(-c3ccc(-c4cc(C(=N)N)ccn4)s3)s2)c1 [Compound 26b, 5,5′-Bis-(4-amidino-2-pyridyl)-2,2′-bithiophene] | – | – | – | –
7 | – | N=C(N)c1ccc2nc(-c3ccc(-c4ccc(C(=N)N)o4)o3)[nH]c2c1 [Compound 45] | ++ | 102 | 92 | –
8 | – | COc1ccc(-c2nc3ccc(-c4nc5ccc(C(=N)N)cc5[nH]4)cc3[nH]2)cc1 [Compound 46] | ++++ | 16 | 29 | In Vivo T.b.r. cures ([1]; 5 mg/kg ip): 0/4; In Vivo T.b.r. survival time ([1]; 5 mg/kg ip): 14.75 days
9 | – | N=C(N)c1ccc(-c2ccc(-c3nc4ccc(C(=N)N)cc4[nH]3)o2)cc1 [Compound 47] | +++ | 122 | 96 | In Vivo T.b.r. cures ([1]; 20 mg/kg ip): 1/4; In Vivo T.b.r. survival time ([1]; 20 mg/kg ip): > 27.75 days
10 | – | c1cc(-c2ccc(-c3nc4ccc(C5=NCCN5)cc4[nH]3)o2)ccc1C1=NCCN1 [Compound 48] | ++++ | – | – | –
11 | – | c1cc(-c2ccc(-c3ccc(C4=NCCN4)o3)o2)oc1C1=NCCN1 [Compound 49] | – | 793 | 93 | exciton splitting in CD spectra (in words) [2]: induced exciton splitting; Induced CD (exciton) [2]: ++
12 | – | c1ccc2[nH]c(-c3ccc(-c4ccc(C5=NCCN5)cc4)o3)nc2c1 [Compound 50] | +++ | – | – | –
13 | – | N=C(N)c1ccc(-c2ccc(-c3ccc(C(=N)N)o3)cc2)cc1 [Compound 51] | – | 5 | 1 | exciton splitting in CD spectra (in words) [2]: induced exciton splitting; Induced CD (exciton) [2]: +
14 | – | N=C(N)c1ccc2nc(-c3ccc(-c4ccc(C(=N)N)c(F)c4)o3)[nH]c2c1 [Compound 52] | +++ | 52.5 | 31 | In Vivo T.b.r. cures ([1]; 20 mg/kg ip): 2/4; In Vivo T.b.r. survival time ([1]; 20 mg/kg ip): > 52 days
15 | – | CC1=CC(C(=N)N)=CN2C=C(c3ccc(-c4ccc(C(=N)N)cc4)o3)NC12 (centres unmarked) [Compound 53] | +++ | 9 | 88 | In Vivo T.b.r. cures ([1]; 5 mg/kg ip): 4/4; In Vivo T.b.r. survival time ([1]; 5 mg/kg ip): > 60 days
16 | – | N=C(N)c1ccc(-c2ccc(-c3ccc(C(=N)N)cc3)o2)cc1 [furamidine, reference compound] | – | – | – | In Vivo T.b.r. survival time ([1]; 5 mg/kg ip): 46.5 days
